Assay results published in the Kinase Knowledgebase extract (Sharma et al. 2016).

Molecular target: MAPK14 (human) (UniProt Q16539)
Assay: In vitro Inhibition of VEGF Stimulated MAPK Activation

Sequence of MAPK14 (human) (Q16539 whole entry, looked up): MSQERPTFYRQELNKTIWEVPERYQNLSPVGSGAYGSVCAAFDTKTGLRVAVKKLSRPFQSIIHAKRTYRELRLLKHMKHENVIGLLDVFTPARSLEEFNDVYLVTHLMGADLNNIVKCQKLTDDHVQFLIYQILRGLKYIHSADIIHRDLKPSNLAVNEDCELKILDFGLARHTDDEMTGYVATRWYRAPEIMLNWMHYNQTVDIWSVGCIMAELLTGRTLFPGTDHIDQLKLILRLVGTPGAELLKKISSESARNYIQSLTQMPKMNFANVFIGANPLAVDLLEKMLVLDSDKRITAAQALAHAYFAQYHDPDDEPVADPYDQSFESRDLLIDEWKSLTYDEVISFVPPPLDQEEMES

IC50	SMILES
3.4 nM	COc1cc2nccc(Oc3ccc(NC(=O)Nc4cccc(C)n4)c(Cl)c3)c2cc1OC
0.7 nM	COc1cc2nccc(Oc3ccc(NC(=O)Nc4ccc(F)cc4C)c(Cl)c3)c2cc1OC
0.6 nM	COc1cc2nccc(Oc3ccc(NC(=O)Nc4ccccc4C)c(Cl)c3)c2cc1OC
8.5 nM	COc1cc2nccc(Oc3ccc(NC(=O)Nc4ccc(C)cn4)c(Cl)c3)c2cc1OC
4 nM	CCCNC(=O)Nc1ccc(Oc2ccnc3cc(OC)c(OC)cc23)cc1[N+](=O)[O-]
0.6 nM	COc1ccccc1NC(=O)Nc1ccc(Oc2ccnc3cc(OC)c(OC)cc23)cc1Cl
5.2 nM	C#CCNC(=O)Nc1ccc(Oc2ccnc3cc(OC)c(OC)cc23)cc1F
42 nM	CCC(C)NC(=O)Nc1ccc(Oc2ncnc3cc(OC)c(OC)cc23)cc1F (stereo not drawn)
14 nM	COc1cc2ncnc(Oc3ccc(NC(=O)NCc4ccc(F)cc4F)c(F)c3)c2cc1OC
2.7 nM	COc1cc2ncnc(Oc3ccc(NC(=O)Nc4ccccc4C)c(F)c3)c2cc1OC
2.2 nM	CCCNC(=O)Nc1ccc(Oc2ccnc3cc(OC)c(OC)cc23)cc1Cl
7.8 nM	CCC(C)NC(=O)Nc1ccc(Oc2ccnc3cc(OC)c(OC)cc23)cc1F (stereo not drawn)
8 nM	CCNC(=O)Nc1ccc(Oc2ncnc3cc(OC)c(OC)cc23)cc1Cl
0.6 nM	COc1cc2nccc(Oc3ccc(NC(=O)Nc4ccc(F)cc4F)c(C)c3C)c2cc1OC
0.5 nM	COCCOc1cc2nccc(Oc3ccc(NC(=O)Nc4ccc(F)cc4F)c(Cl)c3)c2cc1OC
1.8 nM	COc1cc2nccc(Oc3ccc(NC(=O)NCc4ccc(F)cc4F)c(F)c3)c2cc1OC

IC50	SMILES
2.1 nM	C=CCNC(=O)Nc1ccc(Oc2ccnc3cc(OC)c(OC)cc23)cc1F
2.9 nM	COc1cc2nccc(Oc3ccc(NC(=O)Nc4ccc(Cl)cn4)c(Cl)c3)c2cc1OC
2.3 nM	COc1cc2nccc(Oc3cc(C)c(NC(=O)Nc4ccc(F)cc4F)cc3C)c2cc1OC
15 nM	COc1cc2nccc(Oc3ccc(NC(=O)NCC(C)C)c(F)c3)c2cc1OC
11 nM	CCNC(=O)Nc1ccc(Oc2ccnc3cc(OC)c(OC)cc23)cc1F
11 nM	COc1cc2nccc(Oc3ccc(NC(=O)Nc4ccc(Br)cn4)c(Cl)c3)c2cc1OC
0.5 nM	COc1cc2nccc(Oc3ccc(NC(=O)Nc4ccc(F)cc4F)c([N+](=O)[O-])c3)c2cc1OC
0.4 nM	COc1ccc(NC(=O)Nc2ccc(Oc3ccnc4cc(OC)c(OC)cc34)cc2Cl)cc1
4.3 nM	COc1cc2nccc(Oc3c(Cl)cc(NC(=O)Nc4ccc(F)cc4F)cc3Cl)c2cc1OC
2.9 nM	CCCNC(=O)Nc1ccc(Oc2ccnc3cc(OC)c(OC)cc23)cc1F
46 nM	C#CCNC(=O)Nc1ccc(Oc2ncnc3cc(OC)c(OC)cc23)cc1F
< 1 nM	COc1ccccc1NC(=O)Nc1ccc(Oc2ncnc3cc(OC)c(OC)cc23)cc1F
45 nM	CCCCNC(=O)Nc1ccc(Oc2ncnc3cc(OC)c(OC)cc23)cc1F
5.1 nM	CCCCNC(=O)Nc1ccc(Oc2ccnc3cc(OC)c(OC)cc23)cc1F
67 nM	C#CCNC(=O)Nc1ccc(Oc2ncnc3cc(OC)c(OC)cc23)cc1

Further lines, the molecule ahead of its results:

SMILES	IC50
COc1ccccc1NC(=O)Nc1cc(C)c(Oc2ccnc3cc(OC)c(OC)cc23)cc1C	3.8 nM
COc1cc2ncnc(Oc3ccc(NC(=O)Nc4ccc(F)cc4)cc3)c2cc1OC	< 2 nM
COc1cc2ncnc(Oc3ccc(NC(=O)Nc4ccc(F)cc4)cc3C)c2cc1OC	5.2 nM
COc1cc2nccc(Oc3cc(C)c(NC(=O)Nc4ccc(F)cc4C)cc3C)c2cc1OC	12 nM
COc1cc2nccc(Oc3ccc(NC(=O)Nc4cccc5ccccc45)c(Cl)c3)c2cc1OC	5.4 nM
COc1ccccc1NC(=O)Nc1ccc(Oc2ncnc3cc(OC)c(OC)cc23)cc1	1.2 nM
COc1cc2nccc(Oc3ccc(NC(=O)Nc4ccccc4C)c(C)c3C)c2cc1OC	2.5 nM
CCCCNC(=O)Nc1ccc(Oc2ncnc3cc(OC)c(OC)cc23)cc1C	53 nM
COc1cc2nccc(Oc3ccc(NC(=O)Nc4ccccn4)c(C)c3C)c2cc1OC	3.5 nM
COc1cc2ncnc(Oc3ccc(NC(=O)Nc4ccc(F)cc4F)c(C)c3)c2cc1OC	5.3 nM
C=CCNC(=O)Nc1ccc(Oc2ncnc3cc(OC)c(OC)cc23)cc1	45 nM
COc1cc2ncnc(Oc3ccc(NC(=O)NCc4ccc(F)cc4F)c(Cl)c3)c2cc1OC	3.8 nM
CCC(C)NC(=O)Nc1ccc(Oc2ncnc3cc(OC)c(OC)cc23)cc1Cl (stereo not drawn)	30 nM
COc1ccc(NC(=O)Nc2cc(C)c(Oc3ccnc4cc(OC)c(OC)cc34)cc2C)cc1	4.3 nM
CCCCCNC(=O)Nc1ccc(Oc2ncnc3cc(OC)c(OC)cc23)cc1Cl	4.1 nM
CCCCNC(=O)Nc1ccc(Oc2ncnc3cc(OC)c(OC)cc23)c(C)c1	450 nM
COc1cc2ncnc(Oc3ccc(NC(=O)Nc4ccc(F)cc4F)cc3C)c2cc1OC	8.8 nM
COc1ccc(NC(=O)Nc2cc(C)c(Oc3ccnc4cc(OC)c(OC)cc34)cc2C)c(OC)n1	2 nM
CCCNC(=O)Nc1ccc(Oc2ncnc3cc(OC)c(OC)cc23)cc1[N+](=O)[O-]	10.2 nM

SMILES	IC50
CCCNC(=O)Nc1ccc(Oc2ncnc3cc(OC)c(OC)cc23)c(C)c1	518 nM
COc1ccc(NC(=O)Nc2ccc(Oc3ccnc4cc(OC)c(OC)cc34)c(C)c2C)cc1	3.3 nM
COc1cc2ncnc(Oc3ccc(NC(=O)Nc4ccc(F)cc4F)c(F)c3)c2cc1OC	1.8 nM
COc1cc2ncnc(Oc3ccc(NC(=O)Nc4ccc(Cl)cn4)c(Cl)c3)c2cc1OC	58 nM
CCCCNC(=O)Nc1ccc(Oc2ncnc3cc(OC)c(OC)cc23)cc1Cl	71 nM
COc1ccccc1NC(=O)Nc1cc(C)c(Oc2ccnc3cc(OCCN4CCOCC4)c(OC)cc23)cc1C	5.9 nM
C=CCNC(=O)Nc1ccc(Oc2ncnc3cc(OC)c(OC)cc23)cc1Cl	13 nM
COc1cc2c(Oc3cc(C)c(NC(=O)Nc4ccc(F)cc4F)cc3C)ccnc2cc1OCCN1CCOCC1	4.4 nM
COc1cc2nccc(Oc3cc(C)c(NC(=O)Nc4ccccc4C)cc3C)c2cc1OC	5.9 nM
COc1cc2nccc(Oc3ccc(NC(=O)Nc4ccc(C)cn4)c(C)c3C)c2cc1OC	4.2 nM
COCCOc1cc2nccc(Oc3ccc(NC(=O)Nc4ccc(F)cc4F)c(C)c3C)c2cc1OC	5.1 nM
COc1cc2ncnc(Oc3ccc(NC(=O)NCc4ccccn4)cc3)c2cc1OC	750 nM
COc1cc2ncnc(Oc3ccc(NC(=O)Nc4ccc(F)cc4)c(C)c3)c2cc1OC	2.3 nM
COCCOc1cc2nccc(Oc3cc(C)c(NC(=O)Nc4ccc(F)cc4F)cc3C)c2cc1OC	5.1 nM
CCCCCNC(=O)Nc1ccc(Oc2ncnc3cc(OC)c(OC)cc23)cc1	21 nM
COc1cc2nccc(Oc3ccc(NC(=O)Nc4ccc(F)cc4C)c(C)c3C)c2cc1OC	3.9 nM
COc1cc2ncnc(Oc3ccc(NC(=O)Nc4ccc(F)cc4)c(Cl)c3)c2cc1OC	0.7 nM
COc1cc2nccc(Oc3ccc(NC(=O)Nc4ccc(Br)cn4)c(C)c3C)c2cc1OC	4.4 nM
CCCNC(=O)Nc1ccc(Oc2ncnc3cc(OC)c(OC)cc23)cc1Cl	16 nM

SMILES	IC50
CCCNC(=O)Nc1ccc(Oc2ncnc3cc(OC)c(OC)cc23)cc1C	150 nM
COc1cc2nccc(Oc3ccc(NC(=O)Nc4ccc(Cl)cn4)c(C)c3C)c2cc1OC	4 nM
COc1cc2c(Oc3ccc(NC(=O)Nc4ccc(F)cc4F)c(F)c3)ccnc2cc1OCCN1CCOCC1	0.5 nM
COc1cc2ncnc(Oc3ccc(NC(=O)Nc4ccccc4C)cc3)c2cc1OC	6 nM
COc1cc2ncnc(Oc3ccc(NC(=O)NCc4ccccn4)c(Cl)c3)c2cc1OC	> 1000 nM
COCCOc1cc2nccc(Oc3ccc(NC(=O)Nc4ccccc4OC)c(Cl)c3)c2cc1OC	2.8 nM
CCNC(=O)Nc1ccc(Oc2ncnc3cc(OC)c(OC)cc23)cc1	70 nM
COc1cc2nccc(Oc3ccc(NC(=O)Nc4cccc(F)c4OC)c(C)c3C)c2cc1OC	5.3 nM
COc1cc2nccc(Oc3ccc(NC(=O)Nc4ccc(Cl)cc4C)c(C)c3C)c2cc1OC	7.3 nM
CCC(C)NC(=O)Nc1ccc(Oc2ncnc3cc(OC)c(OC)cc23)cc1 (stereo not drawn)	345 nM
COc1cc2ncnc(Oc3ccc(NC(=O)NCc4ccc(F)cc4F)cc3)c2cc1OC	6800 nM
CCCNC(=O)Nc1ccc(Oc2ncnc3cc(OC)c(OC)cc23)cc1	42 nM
COCCOc1cc2nccc(Oc3cc(C)c(NC(=O)Nc4ccccc4OC)cc3C)c2cc1OC	5.8 nM
COc1ccccc1NC(=O)Nc1ccc(Oc2ccnc3cc(OC)c(OC)cc23)c(C)c1C	1.7 nM
COc1ccccc1NC(=O)Nc1ccc(Oc2ncnc3cc(OC)c(OC)cc23)cc1Cl	0.6 nM
COc1cc2nccc(Oc3ccc(NC(=O)Nc4cccc(C)n4)c(C)c3C)c2cc1OC	3.7 nM
COCCOc1cc2nccc(Oc3ccc(NC(=O)Nc4ccccc4OC)c(C)c3C)c2cc1OC	6.5 nM
COc1ccccc1NC(=O)Nc1ccc(Oc2ncnc3cc(OC)c(OC)cc23)cc1C	< 1 nM
COc1cc2nccc(Oc3cc(C)c(NC(=O)Nc4cccc(F)c4OC)cc3C)c2cc1OC	4.9 nM
